Experimental data published in publication PMC4090575, “An In Vivo Microdialysis Study of FLZ Penetration through the Blood-Brain Barrier in Normal and 6-Hydroxydopamine Induced Parkinson's Disease Model Rats” (BioMed Research International, 2014).
Like-named read-outs stand apart in the source and are kept apart here.

Columns and labels:
[1] = In vivo microdialysis pharmacokinetics of free FLZ in blood and brain dialysates, with or without zosuquidar·3HCl pretreatment; parameters: species or system rat; conditions: for AUC, Brain / AUC: n = 3; for AUC / clearance / half-life / unbound brain-to-blood AUC ratio (Kp,uu): rat, 35 mg/kg; for clearance: read-out: CLz, Blood (converted); for unbound brain-to-blood AUC ratio (Kp,uu): brain dialysate / blood dialysate, BBB penetration ratio of free FLZ, read-out: Ri (AUCbrain/AUCblood)
Method: (§1) Rats were divided into four groups (n = 3 animals per group): three normal rats treated with FLZ only (FLZ only-N); three PD rats treated with FLZ only (FLZ only-PD); three normal rats treated with FLZ plus zosuquidar·3HCl (FLZ + ZOSUQ-N); and three PD rats treated with FLZ plus zosuquidar·3HCl (FLZ + ZOSUQ-PD). The system was equilibrated for 1 h after surgery. FLZ was dissolved in a mixture of dimethyl sulfoxide, polyethylene glycol 400, and sodium chloride injection (1 : 4 : 5 (v/v/v)). All rats received FLZ (35 mg/kg) via intravenous injection into the tail vein (with or without pretreatment with zosuquidar·3HCl). Rats in the FLZ + ZOSUQ-N and FLZ + ZOSUQ-PD groups received an i.v. injection of zosuquidar·3HCl (20 mg/kg, dissolved in 20% ethanol-saline) 10 min before FLZ administration. The dose, route of administration, and timing of P-gp inhibition were based on those described in earlier studies. Microdialysis samples were collected from the striatum and the jugular vein at 15 min intervals for 1 h before (blanks) and for 4 h after FLZ administration. The samples were stored at −80°C until they were analysed by ultraperformance liquid chromatography-tandem mass spectrometry (UPLC-MS/MS). At the end of the experiment, the rats were decapitated and the brains were removed for histological verification of probe placement. Data were discarded if the probe placement was outside the target area.
(§2) The microdialysis system comprised a CMA 470 refrigerated fraction collector, a CMA 402 syringe pump, and fluorinated ethylene propylene tubing (CMA, Solna, Sweden). CMA microdialysis probes for the blood (CMA 20, 10 mm in length) and brain (CMA 12, 4 mm in length) were also used. Animals were anaesthetized with urethane (1.4 g/kg, i.p.) before surgery and remained anesthetized throughout the experimental period. The body temperature of each rat was maintained at 37°C until the end of the experiment using a heating pad. The blood microdialysis probe was positioned within the jugular vein toward the right atrium and sutured to the surrounding muscle to prevent it from slipping out. The probe was then perfused with heparinized ringer's solution (1500 U/mL) for 15 min. The microdialysis guide cannula was implanted into the right striatum zone (anterior-posterior: 0.2 mm; lateral: 3.0 mm; dorsal-ventral: 3.5 mm from bregma) and fixed to the skull with stainless steel screws and dental acrylic. The brain microdialysis probe was inserted through the guide cannula.
(§3) In the pilot microdialysis experiment, ringer's solution was perfused through the probe at a flow rate of 1.5 μL/min and the dialysate samples were collected every 15 min from 90 min before until 6 h after dosing with FLZ. In all the other groups, the probes were perfused with ringer's solution containing 4% BSA, with the flow rate set at 1.0 μL/min.
(§4) The relative recovery of FLZ using the microdialysis probe was estimated using a retrodialysis method after sample collection and clearing overnight until there is no drug in the tissue and blood. Perfusates containing FLZ (20 ng/mL for the brain and 200 ng/mL for the blood) were passed separately into the brain and blood through the microdialysis probes at a constant flow rate of 1 μL/min. After a 1-hour stabilization period, the dialysates were collected at 15 min intervals for 1 hour. The concentrations of FLZ in the dialysate (C out) and perfusate (C in) were analysed by UPLC-MS/MS as described in Section 2.7. Recovery (R) was expressed by the following equation: R = 1 − (C out/C in).
(§5) Pharmacokinetic parameters were calculated from the observed data by noncompartmental analysis using the Drug and Statistics for Windows software package (DAS, version 2.0, Chinese Pharmacological Association, China). […]

P-gp = experiment: as above; parameters: species or system rat; conditions: rat, iv, with zosuquidar·3HCl 20 mg/kg i.v. 10 min before FLZ; for AUC / clearance / half-life: 35 mg/kg; for AUC: zosuquidar·3HCl 20 mg/kg i.v. 10 min before FLZ 35 mg/kg i.v., n = 3; for clearance / half-life / unbound brain-to-blood AUC ratio (Kp,uu): zosuquidar·3HCl 20 mg/kg i.v. pretreatment, FLZ 35 mg/kg i.v.; for clearance: read-out: CLz, Blood (converted); for unbound brain-to-blood AUC ratio (Kp,uu): brain dialysate / blood dialysate, read-out: Ri (AUCbrain/AUCblood)
Method: as §1, §2, §3, §4, §5

[2] = Stability of FLZ in UPLC-MS/MS method validation; assay type: physicochemical; conditions: during preparation, after three freeze/thaw cycles and after storing at −80°C for 45 days
Method: Stock solutions of FLZ and IS were prepared separately in methanol at a target concentration of 1 mg/mL and then diluted with methanol to create working solutions of FLZ at concentrations of 1, 3, 10, 30, 100, 300, 1000, 1500, 2500, 5000, 10000, and 15000 ng/mL and IS at concentrations of 10 ng/mL. All solutions were stored in glass tubes at 4°C for less than 2 months until analysis and were protected from light. FLZ calibration standards (0.1, 0.3, 1, 3, 10, 30, 100, 150, 250, 500, 1000, and 1500 ng/mL) were prepared by spiking the blank perfusate with the appropriate working standard solution of FLZ. Quality control samples were prepared using the working solutions from the same stock solution (0.1, 0.3, 1, 10, 100, and 1000 ng/mL), thereby representing the entire range of concentrations.
Assay validation to meet the acceptance criteria was performed according to the bioanalytical method validation guideline (European Medicines Agency Guideline on Bioanalytical Method Validation, July 21, 2011). The assay was validated in terms of specificity, matrix effect, recovery, calibration curve, precision, accuracy (intra- and interday), lower limit of quantification (LLOQ), and stability (autosampler, freeze-thaw, and long-term).

[3] = parameters: method as in PMID 22472186; conditions: cited from earlier work
plasma proteins = system: plasma proteins; parameters: method as in Our previous work; conditions: ref Our previous work; cited from earlier work
[4] = stated with the material supplied; source not given; cited from earlier work
[5] = system: P-gp mediated multidrug resistance; parameters: method as in PMID 9381979; conditions: high therapeutic index; cited from earlier work
[6] = FLZ + ZOSUQ-N group relative to FLZ only-N group, normal rats
[7] = FLZ + ZOSUQ-PD group relative to FLZ only-PD group, PD rats
[8] = blood (jugular vein) dialysate, FLZ + ZOSUQ-N: normal rats, blood dialysate
[9] = blood (jugular vein) dialysate, FLZ + ZOSUQ-PD: 6-OHDA PD rats, blood dialysate

With `COc1ccc(OC)c(C(=Cc2ccc(O)c(OC)c2)C(=O)NCCc2ccc(O)cc2)c1` [FLZ, N-[2-(4-hydroxy-phenyl)-ethyl]-2-(2,5-dimethoxy-phenyl)-3-(3-methoxy-4-hydroxy-phenyl)-acrylamide] the “reduction in FLZ blood dialysate AUC” value ([1]; FLZ + ZOSUQ-N group compared with FLZ only-N group, normal rats, not statistically significant) was 34%, the “increase in brain : blood free FLZ AUC ratio” value [1, 6] was 3 fold and the “increase in mean brain dialysate FLZ AUC” value [1, 6] was 123%. The “AUC, Brain” value ([1]; FLZ + ZOSUQ-N: normal rats, zosuquidar·3HCl 20 mg/kg i.v. pretreatment, FLZ 35 mg/kg i.v., brain dialysate) was 324 ± 46∗∗ μg/L × h, the “decrease in FLZ blood dialysate AUC” value [1, 7] was 56% and the “increase in FLZ brain dialysate AUC” value [1, 7] was 130%. For the same molecule, the “increase in brain : blood free FLZ AUC ratio” value [1, 7] was 4 fold, the “AUC, Brain” value ([1]; FLZ + ZOSUQ-PD: 6-OHDA PD rats, zosuquidar·3HCl 20 mg/kg i.v. pretreatment, FLZ 35 mg/kg i.v., brain dialysate) was 333 ± 103∗ μg/L × h and the “AUC, Brain” value ([1]; FLZ only-N: normal rats, FLZ 35 mg/kg i.v., brain (striatum) dialysate) was 145 ± 25 µg·h/L. The “decrease in brain : blood free FLZ AUC ratio” value ([1]; FLZ only-PD group relative to FLZ only-N group, not statistically significant) was 20%, the “AUC, Brain” value ([1]; FLZ only-PD: 6-OHDA PD rats, FLZ 35 mg/kg i.v., brain (striatum) dialysate) was 145 ± 18 µg·h/L and the AUC ([1]; blood (jugular vein) dialysate, iv, FLZ only-N: normal rats, FLZ 35 mg/kg i.v., blood dialysate, free FLZ) was 2350 ± 39 ng·h/mL. For the same molecule, the clearance ([1]; blood (jugular vein) dialysate, iv, FLZ only-N: normal rats, FLZ 35 mg/kg i.v., blood dialysate) was 248 mL/min/kg, the half-life ([1]; blood (jugular vein) dialysate, iv, FLZ only-N: normal rats, FLZ 35 mg/kg i.v., blood dialysate, read-out: t 1/2, Blood (converted)) was 1.21 ± 0.22 h and the AUC ([1]; blood (jugular vein) dialysate, iv, FLZ only-PD: 6-OHDA PD rats, FLZ 35 mg/kg i.v., blood dialysate, free FLZ) was 3070 ± 621 ng·h/mL. The clearance ([1]; blood (jugular vein) dialysate, iv, FLZ only-PD: 6-OHDA PD rats, FLZ 35 mg/kg i.v., blood dialysate) was 195 mL/min/kg, the half-life ([1]; blood (jugular vein) dialysate, iv, FLZ only-PD: 6-OHDA PD rats, FLZ 35 mg/kg i.v., blood dialysate, read-out: t 1/2, Blood (converted)) was 1.34 ± 0.03 h and the half-life ([1]; blood dialysate and brain dialysate, intravenous, present study, both in the blood and brain, free FLZ, read-out: t 1/2 of FLZ (converted)) was about 1.1 h. The half-life ([1]; brain (striatum) dialysate, iv, FLZ only-N: normal rats, FLZ 35 mg/kg i.v., brain dialysate, read-out: t 1/2, Brain (converted)) was 1.15 ± 0.57 h, the half-life ([1]; brain (striatum) dialysate, iv, FLZ only-PD: 6-OHDA PD rats, FLZ 35 mg/kg i.v., brain dialysate, read-out: t 1/2, Brain (converted)) was 1.31 ± 0.29 h and the unbound brain-to-blood AUC ratio (Kp,uu) ([1]; iv, FLZ only-N: normal rats, FLZ 35 mg/kg i.v.) was 0.0617 ± 0.0105. It also gave an unbound brain-to-blood AUC ratio (Kp,uu) ([1]; iv, FLZ only-PD: 6-OHDA PD rats, FLZ 35 mg/kg i.v.) of 0.0492 ± 0.0158, an AUC (P-gp; [8]) of 1560 ± 881 ng·h/mL and a clearance (P-gp; [8]) of 473 mL/min/kg. It also gave a half-life (P-gp; blood (jugular vein) dialysate, FLZ + ZOSUQ-N: normal rats, blood dialysate, read-out: t 1/2, Blood (converted)) of 1.11 ± 0.13 h, an AUC (P-gp; [9]) of 1330 ± 259 ng·h/mL and a clearance (P-gp; [9]) of 447 mL/min/kg. It also gave a half-life (P-gp; blood (jugular vein) dialysate, FLZ + ZOSUQ-PD: 6-OHDA PD rats, blood dialysate, read-out: t 1/2, Blood (converted)) of 1.43 ± 0.25 h, a half-life (P-gp; brain (striatum) dialysate, FLZ + ZOSUQ-N: normal rats, brain dialysate, read-out: t 1/2, Brain (converted)) of 1.04 ± 0.43 h and a half-life (P-gp; brain (striatum) dialysate, FLZ + ZOSUQ-PD: 6-OHDA PD rats, brain dialysate, read-out: t 1/2, Brain (converted)) of 1.14 ± 0.27 h. The unbound brain-to-blood AUC ratio (Kp,uu) (P-gp; FLZ + ZOSUQ-N: normal rats) was 0.248 ± 0.114, the unbound brain-to-blood AUC ratio (Kp,uu) (P-gp; FLZ + ZOSUQ-PD: 6-OHDA PD rats) was 0.246 ± 0.027 and the “stability of FLZ” value [2] was “remained stable”. The “increase in FLZ brain-to-plasma ratio with zosuquidar·3HCl pretreatment versus control” value ([3]; 0.25 min postdose, brain homogenate-to-plasma concentration ratio) was “about 3.1 fold”, the “t 1/2 of FLZ reported previously” value [3] was “about 0.5 h” and the “binding rate of FLZ to plasma proteins” value (plasma proteins) was “about 90%”. For the same molecule, the lipophilicity [4] was “lipophilic”, the pKa [4] was 13.75 ± 0.46 and the water solubility [4] was “poorly water-soluble”.

In the case of `Cl.Cl.Cl.O[C@@H](COc1cccc2ncccc12)CN1CCN([C@@H]2c3ccccc3[C@@H]3[C@H](c4ccccc42)C3(F)F)CC1` [Zosuquidar·3HCl, zosuquidar trihydrochloride], the “active doses in in vivo antitumor efficacy experiments” value [5] is listed as 1 to 30 mg/kg.
